Assay results taken from patent US7956083B2, “Compounds” (Glaxo Group Limited, priority 2008, dated 2011).

Molecular target: human ER beta (Homo sapiens, UniProt Q92731)
Assay: ER beta FP binding assay (fluorescence polarisation, Fluormone EL Red ligand)
Conditions: 6 nM ERbeta protein, 1.5 nM ER FP ligand, 3 hours at room temperature; read-out: pIC50 in the ER beta FP binding assay (converted)
Procedure: Assay Buffer (AB) (50 mM MOPES pH 7.5, 50 mM NaF, 2.5 mM CHAPs), in deionized water, 5 mM 1,4 dithiothreitol (DTT) added on day of the experiment. The appropriate amount of AB was placed in a plastic tube, adding solid DTT before the assay was run. AB with DTT was distributed to plastic tubes. We have found use of plastic to be important vs glass. A final concentration of 6 nM ERbeta protein was added to the tube followed by gentle inversion. A final concentration of 1.5 nM ER FP ligand (Fluormone™ EL Red 200 nM in 20 mM Tris, 90% Methanol purchased from Invitrogen catalogue no P3030) was added to the same tube followed by gentle inversion. This was allowed to sit for 5-10 minutes before adding it to the 384 assay plate. Similar protocol was used for ERalpha with a final concentration of 4 nM ERalpha and 1.5 nM ER FP ligand.
384 plates containing test compounds dissolved in 100% DMSO at 1 mM were serially diluted (1:3) by a Beckman FX. Serial diluted test compounds were added, 0.1 μL, to the assay plates with a maximum final concentration of 10 uM. Once the assay plates were ready, 10 μL of the above reagents were added to the appropriate set of plates with the Thermo combi. These plates were then sealed and place at room temperature for 3 hours.
The plates were then placed on the Molecular Devices Analyst and counted (excitation 535 nm, emission 590 nm with a 561 Dichroic mirror). Data was normalized to control then fitted to a non-linear least squares algorithm (see below).
pIC50 Calculation y=a+((b−a)/(1+(10^x/10^c){circumflex over (0)}d)
The amino acid sequence of human ER beta used in this assay is […]

Chain of human ER beta (Q92731 with tags, fused parts or gaps): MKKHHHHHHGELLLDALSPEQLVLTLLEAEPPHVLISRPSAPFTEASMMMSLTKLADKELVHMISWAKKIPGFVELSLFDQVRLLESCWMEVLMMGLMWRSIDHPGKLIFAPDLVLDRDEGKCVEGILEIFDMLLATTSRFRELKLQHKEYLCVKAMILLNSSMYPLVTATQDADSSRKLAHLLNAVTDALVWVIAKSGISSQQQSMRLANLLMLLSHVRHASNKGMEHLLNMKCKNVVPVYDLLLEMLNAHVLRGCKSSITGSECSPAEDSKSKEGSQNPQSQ

IC50, < 10 nM:
Oc1ccc(-n2ccc3c(O)ccc(Cl)c32)cc1F [Example 7, 7-Chloro-1-(3-fluoro-4-hydroxyphenyl)-1H-indol-4-ol]
N#Cc1cc(O)c2ccn(-c3ccc(O)c(F)c3)c2c1 [Example 8, 1-(3-Fluoro-4-hydroxyphenyl)-4-hydroxy-1H-indole-6-carbonitrile]
Oc1ccc(-n2ccc3c(O)cc(F)cc32)cc1F [Example 9, 6-Fluoro-1-(3-fluoro-4-hydroxyphenyl)-1H-indol-4-ol]
Oc1ccc(-n2ccc3c(O)c(F)cc(Br)c32)cc1F [Example 4, 7-bromo-5-fluoro-1-(3-fluoro-4-hydroxyphenyl)-1H-indol-4-ol]
Oc1ccc(-n2ccc3c(O)cc(F)cc32)cc1 [Example 10, 6-fluoro-1-(4-hydroxyphenyl)-1H-indol-4-ol]
Oc1ccc(-n2ccc3c(O)c(F)ccc32)cc1F [Example 5, 5-fluoro-1-(3-fluoro-4-hydroxyphenyl)-1H-indol-4-ol]
